Results from US20040067562A1, “Process for the production of L-lysine using coryneform bacteria” (priority 2002, published 2004).

Columns and labels:
[1] = tested on: feedback-resistant aspartate kinase; experiment: inhibition of feedback-resistant aspartate kinase by lysine (or analogue)/threonine mixtures; assay type: biochemical, Corynebacterium glutamicum; conditions: feedback-resistant enzyme of strain DM1725; lysine or analogue 100 mM in mixture with threonine (10 mM)
Excerpt: (§1) The Corynebacterium glutamicum strain DM1725 was produced by multiple untargeted and targeted mutagenesis including genetic engineering methods, selection and mutant selection from C. glutamicum ATCC13032. The strain is resistant to the lysine analogue S-(2-aminoethyl)-L-cysteine and has two identical complete copies of the LysC gene that code for a feedback-resistant aspartate kinase. The two copies are located at the LysC gene site on the chromosome. […] The strain is streptomycin resistant.

[2] = target: T1, aspartate kinase in the wild type (Corynebacterium glutamicum, UniProt P26512); experiment: inhibition of wild type aspartate kinase by lysine (or analogue)/threonine mixtures; assay type: biochemical; conditions: wild type enzyme; lysine or analogue 100 mM in mixture with threonine (10 mM)
T1 construct: endogenous in cells
Excerpt: as §1

T1 sequence (P26512 whole entry): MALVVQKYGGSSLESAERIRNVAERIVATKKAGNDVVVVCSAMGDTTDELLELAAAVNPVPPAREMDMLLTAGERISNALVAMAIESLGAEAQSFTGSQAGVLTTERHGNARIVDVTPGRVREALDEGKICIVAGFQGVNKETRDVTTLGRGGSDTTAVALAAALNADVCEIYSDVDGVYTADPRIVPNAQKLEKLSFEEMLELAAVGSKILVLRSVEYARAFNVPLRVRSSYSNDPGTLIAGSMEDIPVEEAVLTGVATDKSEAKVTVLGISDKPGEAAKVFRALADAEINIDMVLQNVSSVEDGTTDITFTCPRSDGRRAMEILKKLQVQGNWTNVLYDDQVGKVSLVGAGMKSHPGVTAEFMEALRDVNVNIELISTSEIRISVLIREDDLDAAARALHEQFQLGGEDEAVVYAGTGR
T1 sequence (P26512 250-421): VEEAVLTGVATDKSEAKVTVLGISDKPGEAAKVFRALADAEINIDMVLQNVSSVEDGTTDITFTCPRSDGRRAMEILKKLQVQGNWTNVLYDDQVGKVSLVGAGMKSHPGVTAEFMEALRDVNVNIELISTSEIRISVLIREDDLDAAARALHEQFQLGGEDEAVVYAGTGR

| Structure (SMILES) | inhibition of aspartate kinase [1] | residual activity of aspartate kinase [2] [%] |
| --- | --- | --- |
| NCCSC[C@H](N)C(=O)O [S-(2-aminoethyl)-L-cysteine] | insensitive to inhibition | 10 |
| NCCCC[C@H](N)C(=O)O [lysine] | insensitive to inhibition | 10 |
